Assay results from US7357930B1, “Methods and formulations for targeting infectious agents bearing host cell proteins” (Infectio Recherche Inc., priority 1999, dated 2008).
Where two headings read alike, the source gives them in different places.

Tests used:
1G5 cells = assay: Cellular viability / toxicity in 1G5 cells; type: cell-based; conditions: 72 h, concentration range tested (0-10 μg/ml), data not shown
HIV-1NL4-3 = assay: AmB inhibition of HIV-1NL4-3 replication in 1G5 cells (luciferase activity)
Experimental: In a second set of experiments, AmB and the virus were added simultaneously to cells and incubation was made during the first two hours of infection (open square).
Infection was monitored by measuring the luciferase activity. […] Thereafter, an aliquot of this cell lysate (20 μl) was mixed with 100 μl of luciferase assay buffer and activity was evaluated using a microplate luminometer.

[1] = system: HIV-1-based luciferase reporter viruses with HXB2, AML-V or VSV-G env; type: cell-based
Mono Mac 1 cell line = assay: Toxicity in Mono Mac 1 cells; type: cell-based; conditions: data not shown

SMILES	Area under the curve of indinavir (Brachial lymph nodes) [μmoles lipids/g tissues/h]	Area under the curve of indinavir (Cervical lymph nodes) [μmoles lipids/g tissues/h]	Area under the curve of indinavir (Inguinal lymph nodes) [μmoles lipids/g tissues/h]	Area under the curve of indinavir (Liver) [μmoles lipids/g tissues/h]	Area under the curve of indinavir (Mesenteric lymph nodes) [μmoles lipids/g tissues/h]	Area under the curve of indinavir (Plasma) [μmoles lipids/g tissues/h]	Area under the curve of indinavir (Popliteal lymph nodes) [μmoles lipids/g tissues/h]	Area under the curve of indinavir (Spleen) [μmoles lipids/g tissues/h]	drug levels in lymphoid tissues (all lymphoid tissues)	cellular viability (1G5 cells)	concentration giving complete inhibition of HIV-1NL4-3 replication (HIV-1NL4-3; 1G5 cells pretreated with AmB) [μg AmB/ml]	inhibition of viral replication (HIV-1NL4-3; AmB added to infected cells after adsorption, 10 μg AmB/ml, 72 h) [%]	concentration giving complete abrogation of viral replication (HIV-1NL4-3; cell-free virus pretreated 1 h at 37° C.) [μg AmB/ml]	viral particles inactivated (HIV-1NL4-3; cell-free virus pretreated 1 h at 37° C. with 1 μg AmB/ml)	concentration giving complete inhibition of HIV-1 replication (HIV-1NL4-3; virus and AmB added simultaneously to cells (no pretreatment)) [μg AmB/ml]	inhibition of infection with pseudotyped virions [1]	toxicity (Mono Mac 1 cell line)
CC(C)(C)NC(=O)[C@@H]1CN(Cc2cccnc2)CCN1C[C@@H](O)C[C@@H](Cc1ccccc1)C(=O)N[C@H]1c2ccccc2C[C@H]1O [Free indinavir, indinavir]	4.9	7.6	4.1	35.0	6.4	2.3	4.5	5.3	very low drug levels								
C[C@@H]1[C@H](O)[C@@H](C)/C=C/C=C/C=C/C=C/C=C/C=C/C=C/[C@H](O[C@@H]2O[C@H](C)[C@@H](O)[C@H](N)[C@@H]2O)C[C@@H]2O[C@](O)(C[C@@H](O)C[C@@H](O)[C@H](O)CC[C@@H](O)C[C@@H](O)CC(=O)O[C@H]1C)C[C@H](O)[C@H]2C(=O)O [AmB, amphotericin B]										did not affect the cellular viability	10	40	5	About 50%	10	efficient to inhibit infection	without significant toxicity
